Source: patent US20230140798A1, “SYNTHETIC PEPTIDES DIRECTED AGAINST THE METABOTROPIC GLUTAMATE RECEPTOR 5” (Lactocore, Inc., priority 2020, published 2023)
“Also recorded” adds a separate entry of the source.

How the values were obtained:
human mGluR5 = molecular target: T1, human mGluR5 (Homo sapiens, UniProt P41594); experiment: Sodium glutamate-evoked [Ca^2+] responses in CHO-mGluR5 cells (calcium-flux imaging); type: cell-based
T1 construct: expressed in transfected cells; host or cells: CHO cells carrying pcDNA6/TR (T-REx system)
Description: CHO-mGluR5 cells with tetracycline-induced stable expression of human mGluR5.
The CHO cell line stably expressing human mGluR5 was generated using T-Rex System (Thermo Fisher Scientific Inc., Waltham, Mass., USA) according to the manufacturer's' instructions. Briefly, cDNA encoding human mGluR5 was subcloned into inducible expression vector pcDNA4/TO and was transfected into CHO cells carrying regulatory vector pcDNA6/TR that expresses the tetracycline repressor. After 2 weeks of selection using Blasticidin (5 µg/ml) and zeocin (250 µg/ml), pools of cells were screened for the expression of mGluR5 in the agonist-induced [Ca^2+] uptake assay. Positive cells were expanded and used. mGluR5 expression was induced by adding tetracycline (up to 1 µg/ml) 16 h before testing.
Fluorescent assays were performed using NOVOstar (BMG LABTECH, Ortenberg, Germany). CHO-mGluR5 cells were seeded into black-walled clear-bottomed 96-well plates at a density of 75,000 cells per well (complete media without antibiotics and containing 1 µg/ml of tetracycline to induce receptor expression) and were cultured overnight at 37° C. […] After a 3-min incubation at 37° C., changes in cell fluorescence ([…]) were monitored before and after the addition of the mGLuR5 agonist (1 mM sodium glutamate—Glu-Na). […]

Sprague-Dawley rats = experiment: Modified Porsolt Forced Swim test (FST), rats; type: in vivo; details: i.p.; group name 5 mg/kg, test substance 20 mg/kg
Protocol: As part of this modification, two tests are carried out within two days. The installation is a transparent cylinder, 30 cm high, 10 cm in diameter and filled with water (water temperature 21° C.-23° C.) to a mark at a height of 25 cm. On the first day, each animal is placed in the apparatus for ten minutes. Behavioral parameters are not recorded. The animals are placed in the cylinder for 10 minutes again on the second day. The duration of active (vigorous movements with all paws) and passive (weak strokes with hind legs) swimming, as well as immobility (immobilization) (Porsolt et al. (1977) Behavioral despair in mice: a primary screening test for antidepressants. Arch Int Pharmacodyn Ther. 229(2):327-36) are recorded. After each test, the rats are placed in a heated cage until dry. The behavioral indicators in this test are processed using the Real Timer Program developed by Open Science. The sequence of events, their duration, as well as conduct basic statistical data processing are recorded.

mGluR5 (GRM5) = experiment: HEK 293 cells mGluR5-luciferase reporter assay (β-arrestin2 recruitment); type: cell-based, human; details: for effect on CHPG-induced mGluR5 activity (luciferase signal): + 1 mM CHPG
Description: The methodology was previously described by Kroeze (Kroeze et al. (2015). PRESTO-Tango as an open-source resource for interrogation of the druggable human GPCRome. Nat. Struct. Mol. Biol. 22(5): 362) and the principle is illustrated in FIG. 19. Briefly, the cells of HEK293 cell line are transfected with 3 types of plasmids:
Plasmid 1: encodes fusion GRMS-tTA protein. The linker between GRMS and tTA is sensitive to TEV-protease (www.addgene.org/66390/).
Plasmid 2: encodes β-arrestin2/TEV-protease fusion protein (www.addgene.org/107245/).
Plasmid 3: luciferase tTA reporter (www.addgene.org/64127/).
Sufficient quantities of fusion proteins were produced during 24 hours after transfection. mGluR5 (GRM5) activation by a selective agonist CHPG (SEQ ID NO: 18) (1) leads to recruiting of β-arrestin2/TEV-protease fusion protein (2), that cleaves the linker between GRM5 and tTA (3). Released tTA transcription factor (4) binds with its consensus sites in tTA luciferase reporter plasmid (5) that results in activation of luciferase expression. The activity of luciferase can be used to estimate the activity of mGluR5, and application of negative allosteric modulators of mGluR5 should lead to a dose-dependent decrease in luciferase activity in this system (FIG. 19).
Sufficient quantities of the plasmids were produced using standard applications before the experiment. HEK293 cells were co-transfected with three plasmids using polyethylenimine (PEI, 408727, Sigma-Aldrich, USA) 24 hours prior to agonists application. Transfected cells were treated with agonists/antagonists and incubated overnight (16 hours). Antagonists were introduced 10 minutes prior to agonists. Luciferase test was performed using Promega™ Luciferase Assay Systems Kit (PR-E1500, Promega, USA) according to the manufacturer's protocol.
CHPG—orthosteric selective mGlu5 receptor agonist (HB0033, HelloBio, USA). […]

Wistar rats [1] = experiment: Open Field test in Acute Foot Shock (AFS) stress model; type: in vivo; details: 4.5 mg/kg i.p. daily for ten days after AFS
Protocol: (§1) KEDV (SEQ ID NO: 4) and RAHE (SEQ ID NO: 3) (Lactocore Inc.) were administered intranasally (i.n), daily for 10 days at a dose of 1 mg/kg and 5 mg/kg. Peptides were prepared freshly each day in saline. The solution for i.n. administration of 5 mg/kg in a volume of 15 μl (single administration) contained 1.3 mg KEDV (SEQ ID NO: 4) or RAHE (SEQ ID NO: 3), and a solution for intranasal administration of 1 mg/kg in a volume of 10 μl (single administration) contained 0.26 mg KEDV (SEQ ID NO: 4) or RAHE (SEQ ID NO: 3).
(§2) The tetracyclic antidepressant Maprotiline (MAP, “Lyudiomil”), was used as a drug of comparison. Animals received a daily intraperitoneal injection (i.p) of MAP for ten days (M9651, Merck, in a dose of 4.5 mg/kg, dissolved in saline, 250 μl per administration).
(§3) Stimulation was performed automatically using a software randomizer.
The OF test is a classic method for assessing the level of motor activity and exploratory behavior of rodents in new stressogenic conditions. The test was performed in a cage of 90×90×45 cm without a roof, the floor of which was laid out on squares 15×15 cm and lit from above by a 60 W lamp. On the 5th day after stressing in the LH model, the rat was placed in the center of the OF. The following parameters were measured for 5 minutes: latency to start of moving, the number of crossed squares, the duration of rears and freezing.

Wistar rats [2] = experiment: Elevated Plus Maze test in Acute Foot Shock (AFS) stress model; type: in vivo
Protocol: as §1, §2, §3
EPM testing allows characterizing the behavior of rodents under the variable stress conditions, which makes it possible to assess the level of animal anxiety and anxiolytic effects of drugs. On the 6th day after the experimental exposure, the rats were tested one at a time for 5 min in the EPM installation, located at a height of 75 cm above the floor, and consisting of 2 open illuminated and 2 closed arms with exits. The time spent by the animal inside and outside the closed arms (in the open arms and in the center), the number of transitions between the arms, the number of stretch-attended postures were evaluated. Usually, animals tend to stay in the closed arms, anxiolytic treatment results in an increment of the time spent on the open arms of the maze (Pellow et al. (1985). Validation of open: closed arm entries in an elevated plus-maze as a measure of anxiety in the rat. J. Neurosci. Methods, 14(3), 149-167; Walf et al. (2007). The use of the elevated plus maze as an assay of anxiety-related behavior in rodents. Nat. Protoc., 2(2), 322-328).

Wistar rats [3] = experiment: Dexamethasone test (DXMT), serum corticosterone, AFS model; type: in vivo; details: 4.5 mg/kg i.p. daily, after AFS; DXM 10 μg/kg
Protocol: as §3
Evaluation of the stress-evoked release of glucocorticoid hormones (corticosterone, an analog of cortisol in humans) and its suppression by the introduction of synthetic glucocorticosteroid was performed on the 9-10th day after the development of LH in a two-day dexamethasone test according to the scheme, taking into account the specificity of the circadian rhythm of HPA axis function in rats (Zhukov (1993). The dexamethasone suppression test in genetically different rats exposed to inescapable and escapable electric shocks. Psychoneuroendocrinology, 18(7), 467-474.].
On the first day of the test (DXMT1) at 10:00 AM, animals were injected (i.p.) with saline, then at 04:00 PM on the same day peripheral blood samples were taken to determine the basal level of the hormone, which caused stress, and 30 minutes after taking the rat from the cage and receiving initial sample, re-taken blood to measure hormone stress level.
To study the sensitivity of the HPA system to feedback signals, rats were injected with dexamethasone (DXM, 10 μg/kg, i.p.) the next day (DXMT2) at 10 AM. The procedure for taking blood from the tail vein was repeated after 6 and 6.5 hours. The corticosterone content was determined by enzyme-linked immunosorbent assay with reagent kits “Corticosterone-ELISA” (“Hema”, RF) in two parallel samples.

[4] = MAP 4.5 mg/kg i.p., AFS, overall median 0.00

T1 sequence (P41594 21-1212): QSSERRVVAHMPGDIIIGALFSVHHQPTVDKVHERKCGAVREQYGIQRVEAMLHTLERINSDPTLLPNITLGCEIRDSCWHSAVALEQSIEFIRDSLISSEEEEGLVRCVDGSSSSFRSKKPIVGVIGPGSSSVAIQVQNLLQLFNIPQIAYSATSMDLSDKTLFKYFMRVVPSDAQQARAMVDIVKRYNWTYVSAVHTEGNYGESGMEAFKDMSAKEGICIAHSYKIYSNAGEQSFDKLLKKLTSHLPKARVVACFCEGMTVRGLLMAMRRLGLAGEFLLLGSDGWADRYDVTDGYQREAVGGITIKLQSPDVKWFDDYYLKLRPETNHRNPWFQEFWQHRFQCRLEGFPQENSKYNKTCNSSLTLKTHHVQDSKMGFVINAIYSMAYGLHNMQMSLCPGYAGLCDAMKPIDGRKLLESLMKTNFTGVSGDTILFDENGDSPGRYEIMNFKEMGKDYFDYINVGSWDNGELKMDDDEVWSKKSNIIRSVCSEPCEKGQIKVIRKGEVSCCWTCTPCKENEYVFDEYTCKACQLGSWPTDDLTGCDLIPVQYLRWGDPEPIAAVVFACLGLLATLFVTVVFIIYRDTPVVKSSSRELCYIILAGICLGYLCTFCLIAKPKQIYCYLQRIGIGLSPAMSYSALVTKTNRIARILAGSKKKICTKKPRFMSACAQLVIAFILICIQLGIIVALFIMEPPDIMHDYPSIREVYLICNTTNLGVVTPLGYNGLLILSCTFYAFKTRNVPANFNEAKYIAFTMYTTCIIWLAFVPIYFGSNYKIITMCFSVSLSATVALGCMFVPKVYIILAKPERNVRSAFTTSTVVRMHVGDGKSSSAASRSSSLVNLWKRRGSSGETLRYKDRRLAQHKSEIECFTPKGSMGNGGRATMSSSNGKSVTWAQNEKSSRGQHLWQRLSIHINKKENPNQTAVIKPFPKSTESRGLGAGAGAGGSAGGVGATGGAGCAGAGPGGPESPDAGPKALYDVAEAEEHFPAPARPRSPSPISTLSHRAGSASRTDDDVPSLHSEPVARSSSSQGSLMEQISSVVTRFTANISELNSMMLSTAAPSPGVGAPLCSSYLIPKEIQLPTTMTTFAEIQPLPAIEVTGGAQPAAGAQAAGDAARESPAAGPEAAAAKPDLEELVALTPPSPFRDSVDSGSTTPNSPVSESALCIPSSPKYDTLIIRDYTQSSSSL

In the case of `N[C@@H](CCC(=O)[O-])C(=O)[O-].[Na+].[Na+]` [GluNa, sodium glutamate], the “intracellular [Ca^2+] levels vs buffer” value (human mGluR5; 1 mM, CHO-mGluR5 cells) is reported as “elevated intracellular [Ca^2+] levels”.

For `CNCCC(Oc1ccc(C(F)(F)F)cc1)c1ccccc1` (stereo not shown) [Fluoxetine, fluoxetine], the “antidepressant-like properties in FST” value (Sprague-Dawley rats) was “not observed”.

In the case of `Cc1cccc(C#Cc2ccccc2)n1` [MPEP, 2-methyl-6-(phenylethynyl)-pyridine], the “effect on GluNa-induced activation” value (human mGluR5; pre-treatment 0.1, 1, 10, 100 μM, 1 mM GluNa) is reported as “abolished GluNa-induced activation”.

For `Cc1ccc(O)c(N=Nc2ccccc2)n1` [SIB 1757], the “effect on CHPG-induced mGluR5 activity (luciferase signal)” value (mGluR5 (GRM5); 10 μM) was “inhibition of mGluR5 activity; also recorded: significant decrease of luciferase signal” and the “effect on CHPG-induced mGluR5 activity (luciferase signal)” value (mGluR5 (GRM5); 100 μM) was “inhibition of mGluR5 activity”.

With `NC(C(=O)O)c1cc(O)ccc1Cl` (stereo not shown) [CHPG] the “luciferase signal (mGluR5 activation)” value (mGluR5 (GRM5); 1 mM, 16-hours incubation) was “significant induction of luciferase signal”.

For `CNCCCC12CCC(c3ccccc31)c1ccccc12` [MAP, Maprotiline], the “freezing behavior vs stressed saline-treated animals” value (Wistar rats [1]) was “significant reduction of freezing behavior”, the “proportion of animals that went to the open arms of the maze” value (Wistar rats [2]; 4.5 mg/kg i.p. daily, after AFS) was 78% and the “time in open arms <=Median: obs. − exp.” value (Wistar rats [2]; MAP 4.5 mg/kg i.p., AFS) was −2.86. For the same compound, the “time in open arms >Median: obs. − exp.” value (Wistar rats [2]; MAP 4.5 mg/kg i.p., AFS) was 2.86, the “time in open arms <=Median: observed (animals)” value (Wistar rats [2]; [4]) was 2.00 and the “time in open arms >Median: observed (animals)” value (Wistar rats [2]; [4]) was 7.00. For the same compound, the “suppression of stress CS levels in serum by DXM” value (Wistar rats [3]) was “more than 50%”.
